Reference: US10647708B2, “Tetrahydroisoquinoline derived PRMT5-inhibitors” (CTXT PTY LTD, priority 2014, dated 2020)
pIC50: −log10 of the molar value.

These compounds were tested on symmetrical dimethylation of arginine (Histone H4 Arginine 3) in cell line TE11 (assay: Revised PRMT5 Biomarker Assay). Conditions: Homo sapiens, TE-11; TE11 cells, 72 hours incubation, anti-Di-Methyl Histone H4 Arginine 3 immunofluorescence, plate-reader based.
Assay type: cell-based
Method: Compounds of the invention may be tested for potency to inhibit symmetrical dimethylation of arginine in the following assay:
The cell line TE11 was seeded at a density of 6,000 cells per well in 96 well optical quality tissue culture plates in DME medium and 10% foetal bovine serum, and allowed to adhere for 5 hours under standard culture conditions (37 degree Celsius, 5% CO2). Compound dilutions prepared in DMSO were added to the medium, with negative control wells reserved for treatment with DMSO only and positive controls receiving a potent PRMT5 inhibitor compound at 1 μM concentration. After incubation for 72 hours, the cells were fixed with 3.7% formaldehyde in PBS for 30 minutes at room temperature, washed with phosphate buffer saline and blocked with Odyssey blocking buffer (LI-COR, Lincoln, Nebr.). Rabbit anti-Di-Methyl Histone H4 Arginine 3 specific antibody (Epigentek) in Odyssey blocking buffer was added and incubated for 14 hours at 4 degree Celsius. After washing, anti-rabbit secondary antibody labelled with Alexa647 dye (LifeTechnologies) and Hoechst 33342 (1 μg/mL, SigmaAldrich) were added for 1 hour incubation. Plates were washed and read on a PerkinElmer Envision 2103 in fluorescence intensity scanning mode (24 scans across the well area). The methylation level information was corrected for the number of cells as expressed by the Hoechst 33342 stain, converted to percent inhibition relative to controls on the same plate and the data fitted against a four-parameter logistic model to determine the 50% inhibitory concentration (IC50 plate-reader based). Alternatively, the plates were imaged on a PerkinElmer Phenix high content imaging platform. Using a Columbus image analysis pipeline, individual nuclei were located by Hoechst 33342 stain and the methylation level was calculated from the Alexa647-related intensity in the same area. The resulting mean intensity per cell was directly converted to percent inhibition as outlined above (IC50, imager based)).
An IC50 of 0.023 µM was found for `Cc1nn(C)cc1-c1cc(C(=O)NCCC(O)CN2CCc3ccccc3C2)no1` (stereo not shown) [Compound 36] in this work. An IC50 of 0.048 µM was found for `O=C(NCCC(O)CN1CCc2ccccc2C1)c1ccc(-c2ccccc2)cc1` (stereo not shown) [Compound 40] in this work. An IC50 of 0.089 µM was found for `O=C(NCCC(O)CN1CCc2ccccc2C1)c1ccc(OC(F)(F)F)cc1` (stereo not shown) [Compound 19] in this work. An IC50 of 0.505 µM was found for `O=C(NCCC(O)CN1CCc2ccccc2C1)c1ccc(S(F)(F)(F)(F)F)cc1` (stereo not shown) [Compound 20] in this work.

Same assay, conditions: TE11 cells, 72 hours incubation, anti-Di-Methyl Histone H4 Arginine 3 immunofluorescence, plate-reader based
An IC50 of 0.007 µM was found for `CC(=O)N1CCC(Nc2cc(C(=O)NCCC(O)CN3CCc4ccccc4C3)ccn2)CC1` (stereo not shown) [Compound 46] in this work.

What follows are compounds tested against Full-length PRMT5 enzyme co-expressed with MEP50 (Homo sapiens (Human), UniProt O14744) (assay: Revised PRMT5 Biochemical Assay). Conditions: 1 μM peptide substrate, 1 μM S-Adenosyl methionine, 4 hours at 37 degree Celsius, Transcreener EPIGEN fluorescence polarisation.
Full-length PRMT5 enzyme co-expressed with MEP50, sequence (O14744 whole entry): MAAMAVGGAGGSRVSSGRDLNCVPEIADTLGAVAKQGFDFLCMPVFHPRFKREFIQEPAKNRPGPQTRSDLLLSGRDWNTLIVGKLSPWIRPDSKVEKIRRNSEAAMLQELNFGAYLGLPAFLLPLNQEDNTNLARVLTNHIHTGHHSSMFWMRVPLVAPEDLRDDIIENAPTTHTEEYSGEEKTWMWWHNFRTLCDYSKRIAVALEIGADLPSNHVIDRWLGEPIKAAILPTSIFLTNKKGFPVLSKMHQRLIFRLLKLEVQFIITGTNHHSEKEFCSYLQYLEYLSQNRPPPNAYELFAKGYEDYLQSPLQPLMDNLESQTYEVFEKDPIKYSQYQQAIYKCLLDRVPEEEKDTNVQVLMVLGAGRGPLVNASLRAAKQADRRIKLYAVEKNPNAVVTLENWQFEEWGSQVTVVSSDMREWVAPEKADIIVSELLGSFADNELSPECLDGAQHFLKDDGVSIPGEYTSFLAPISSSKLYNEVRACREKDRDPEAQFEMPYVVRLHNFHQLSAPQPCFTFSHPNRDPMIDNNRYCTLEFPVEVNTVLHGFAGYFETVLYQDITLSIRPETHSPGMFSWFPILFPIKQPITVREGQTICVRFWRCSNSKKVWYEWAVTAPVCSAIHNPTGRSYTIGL
Full-length PRMT5 enzyme co-expressed with MEP50, sequence (Q9BQA1 whole entry partner): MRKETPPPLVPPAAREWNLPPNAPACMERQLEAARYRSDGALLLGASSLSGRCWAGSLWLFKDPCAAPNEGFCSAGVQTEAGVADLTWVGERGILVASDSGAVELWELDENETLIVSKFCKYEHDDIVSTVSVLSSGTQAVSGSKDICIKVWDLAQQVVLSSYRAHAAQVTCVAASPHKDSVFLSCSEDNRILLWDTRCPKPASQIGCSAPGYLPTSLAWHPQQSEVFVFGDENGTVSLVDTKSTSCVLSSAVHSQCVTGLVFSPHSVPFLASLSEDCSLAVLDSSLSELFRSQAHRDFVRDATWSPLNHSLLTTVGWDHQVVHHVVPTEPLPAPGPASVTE
Method: Compounds of the invention may be tested for in vitro activity in the following assay: A histone H4 derived peptide is used as substrate (amino acid sequence: […]NH2). Full-length PRMT5 enzyme (NCBI Reference sequence NP_006100.2) was co-expressed with Hiss-MEP50 in insect cells and purified via Nickel immobilized metal affinity and gel filtration chromatography (“the enzyme”).
The 6 μL reactions are run in Greiner brand black 384-well low volume assay plates. All reactions contained assay buffer (phosphate buffered saline, 0.01% (v/v) Tween-20, 0.01% (w/v) albumin from chicken egg white, 1 mM Dithiothreitol, 1 μM peptide substrate, 1 μM S-Adenosyl methionine, and 15 ng/reaction enzyme, with the enzyme being omitted from negative control reactions. Compounds were added in a volume of 100 nL from dilution series prepared in DMSO, positive and negative control reactions receiving the same volume DMSO without compound. The plates were sealed with adhesive seals and incubated for 4 hours at 37 degree Celsius. Reaction progress was measured using the Transcreener™ EPIGEN methyltransferase assay (BellBrook Labs, Madison, Wis.) as recommended by the manufacturer. To each reaction 2 μL detection mix were added, containing coupling enzymes, fluorescence polarisation tracer, and AMP antibody. Plates were incubated for 90 minutes before being read on a PerkinElmer EnVision™ plate reader in fluorescence polarisation mode. IC50 values were obtained from the raw readings by calculating percent inhibition (% I) for each reaction relative to controls on the same plate (% I=(I−CN)/(CP−CN) where CN/CP are the averages of the negative/positive reactions, respectively), then fitting the % I data vs. compound concentration [I] to % I=(A+((B−A)/(1+((C/[I])^D)))) where A is the lower asymptote, B is the upper asymptote, C is the IC50 value, and D is the slope.
A pIC50 of 5.51 was found for `O=C(NCCC(O)CN1CCc2ccccc2C1)c1ccc(C(=O)N2CCCC2)cc1` (stereo not shown) [Compound 30] in this work. A pIC50 of 5.28 was found for `O=C(NCCC(O)CN1CCc2ccccc2C1)c1cccc(-c2ccccc2)c1` (stereo not shown) [Compound 41] in this work. A pIC50 of 5.51 was found for `COc1ccc(-c2cc(C(=O)NCCC(O)CN3CCc4ccccc4C3)on2)cc1` (stereo not shown) [Compound 8] in this work. A pIC50 of 5.93 was found for `Cn1cc(-c2cc(C(=O)NCCC(O)CN3CCc4ccccc4C3)no2)cn1` (stereo not shown) [Compound 37] in this work. A pIC50 of 5.95 was found for `O=C(NCCC(O)CN1CCc2ccccc2C1)c1ccc(S(=O)(=O)C(F)(F)F)cc1` (stereo not shown) [Compound 2] in this work. A pIC50 of 5.91 was found for `Cc1nnc(-c2cccc(C(=O)NCCC(O)CN3CCc4ccccc4C3)c2)o1` (stereo not shown) [Compound 39] in this work. A pIC50 of 5.13 was found for `Cc1c(C(=O)NCCC(O)CN2CCc3ccccc3C2)cnn1-c1ccccn1` (stereo not shown) [Compound 33] in this work. A pIC50 of 4.91 was found for `O=C(NCCC(O)CN1CCc2ccccc2C1)c1cnn(-c2ccccn2)c1` (stereo not shown) [Compound 28] in this work. A pIC50 of 5.28 was found for `O=C(NCCC(O)CN1CCc2ccccc2C1)c1cccc(C(=O)N2CCOCC2)c1` (stereo not shown) [Compound 45, N-(4-(3,4-dihydroisoquinolin-2(1H)-yl)-3-hydroxybutyl)-3-(morpholine-4-carbonyl)benzamide] in this work. A pIC50 of 4.29 was found for `CS(=O)(=O)c1ccccc1OCC(=O)NCCC(O)CN1CCc2ccccc2C1` (stereo not shown) [Compound 4] in this work. A pIC50 of 5.92 was found for `Cc1nn(C)cc1-c1cc(C(=O)NCCC(O)CN2CCc3ccccc3C2)no1` (stereo not shown) [Compound 36] in this work. A pIC50 of 6.11 was found for `O=C(NCCC(O)CN1CCc2ccccc2C1)c1ccc(-c2ccccc2)cc1` (stereo not shown) [Compound 40] in this work. A pIC50 of 5.25 was found for `COc1ccc(C(=O)NCCC(O)CN2CCc3ccccc3C2)cc1-c1cncnc1` (stereo not shown) [Compound 27] in this work. A pIC50 of 4.89 was found for `N#Cc1cccc(C(=O)NCCC(O)CN2CCc3ccccc3C2)c1` (stereo not shown) [Compound 16] in this work. A pIC50 of 5.43 was found for `C[S+]([O-])c1ccc(C(=O)NCCC(O)CN2CCc3ccccc3C2)cc1` (stereo not shown) [Compound 26] in this work. A pIC50 of 5.88 was found for `O=C(NCCC(O)CN1CCc2ccccc2C1)c1ccc(C(F)(F)F)cc1` (stereo not shown) [Compound 5] in this work. A pIC50 of 5.92 was found for `O=C(NCCC(O)CN1CCc2ccccc2C1)c1coc(-c2ccccc2)n1` (stereo not shown) [Compound 35] in this work. A pIC50 of 6.04 was found for `O=C(NCCC(O)CN1CCc2ccccc2C1)c1ccc(N2CCOCC2)nc1` (stereo not shown) [Compound 14] in this work. A pIC50 of 6.50 was found for `O=C(NCCC(O)CN1CCc2ccccc2C1)c1ccc(OC(F)(F)F)cc1` (stereo not shown) [Compound 19] in this work. A pIC50 of 4.25 was found for `O=C(NCCC(O)CN1CCc2ccccc2C1)c1noc(-c2ccccc2)n1` (stereo not shown) [Compound 34] in this work. A pIC50 of 5.54 was found for `O=C(NCCC(O)CN1CCc2ccccc2C1)c1ccnn1-c1cccnc1` (stereo not shown) [Compound 38] in this work. A pIC50 of 5.01 was found for `O=C(NCCC(O)CN1CCc2ccccc2C1)c1cccc(Cl)c1` (stereo not shown) [Compound 18] in this work. A pIC50 of 4.86 was found for `O=C(NCCC(O)CN1CCc2ccccc2C1)c1ccnc(Cl)c1` (stereo not shown) [Compound 44, 2-Chloro-N-(4-(3,4-dihydroisoquinolin-2(1H)-yl)-3-hydroxybutyl)isonicotinamide] in this work. A pIC50 of 5.20 was found for `O=C(NCCC(O)CN1CCc2ccccc2C1)c1cccc(-c2ccnnc2)c1` (stereo not shown) [Compound 25] in this work. A pIC50 of 6.73 was found for `CC(=O)N1CCC(Nc2cc(C(=O)NCCC(O)CN3CCc4ccccc4C3)ccn2)CC1` (stereo not shown) [Compound 46] in this work. A pIC50 of 6.03 was found for `O=C(NCCC(O)CN1CCc2ccccc2C1)c1ccc([S+]([O-])C(F)(F)F)cc1` (stereo not shown) [Compound 3] in this work. A pIC50 of 5.40 was found for `Cc1nonc1COc1ccc(C(=O)NCCC(O)CN2CCc3ccccc3C2)cc1` (stereo not shown) [Compound 10] in this work. A pIC50 of 4.97 was found for `Cn1ccc(C(=O)NCCC(O)CN2CCc3ccccc3C2)cc1=O` (stereo not shown) [Compound 29] in this work. A pIC50 of 4.60 was found for `Cc1cccc(C(=O)NCCC(O)CN2CCc3ccccc3C2)n1` (stereo not shown) [Compound 24] in this work. A pIC50 of 5.15 was found for `CS(=O)(=O)c1ccc(C(=O)NCCC(O)CN2CCc3ccccc3C2)cc1` (stereo not shown) [Compound 22] in this work. A pIC50 of 4.88 was found for `O=C(NCCC(O)CN1CCc2ccccc2C1)c1ccc(N2CCCCC2=O)cc1` (stereo not shown) [Compound 6] in this work. A pIC50 of 3.98 was found for `O=C(NCCC(O)CN1CCc2ccccc2C1)c1cncc(Cl)n1` (stereo not shown) [Compound 43] in this work. A pIC50 of 6.67 was found for `O=C(NCCC(O)CN1CCc2ccccc2C1)c1ccc(S(F)(F)(F)(F)F)cc1` (stereo not shown) [Compound 20] in this work. A pIC50 of 4.82 was found for `O=C(NCCC(O)CN1CCc2ccccc2C1)c1cccnc1` (stereo not shown) [Compound 17] in this work. A pIC50 of 5.36 was found for `O=C(NCCC(O)CN1CCc2ccccc2C1)c1ccc2oc(=O)[nH]c2c1` (stereo not shown) [Compound 9] in this work. A pIC50 of 6.38 was found for `O=C(NCCC(O)CN1CCc2ccccc2C1)c1ccc(OC(F)F)cc1` (stereo not shown) [Compound 21] in this work. A pIC50 of 5.45 was found for `CN(C)C(=O)c1ccc(C(=O)NCCC(O)CN2CCc3ccccc3C2)cc1` (stereo not shown) [Compound 32] in this work. A pIC50 of 5.80 was found for `O=C(NCCC(O)CN1CCc2ccccc2C1)c1ccn(Cc2ccccc2)c(=O)c1` (stereo not shown) [Compound 12] in this work. A pIC50 of 5.71 was found for `COc1ccc(-n2cc(C(=O)NCCC(O)CN3CCc4ccccc4C3)cn2)cc1` (stereo not shown) [Compound 7] in this work. A pIC50 of 5.50 was found for `O=C(NCCC(O)CN1CCc2ccccc2C1)c1ccc(C(=O)N2CCC2)cc1` (stereo not shown) [Compound 31] in this work. A pIC50 of 5.77 was found for `O=C(NCCC(O)CN1CCc2ccccc2C1)c1ccc2c(c1)OC(F)(F)O2` (stereo not shown) [Compound 23] in this work. A pIC50 of 4.41 was found for `O=C(NCCC(O)CN1CCc2ccccc2C1)c1nnc(-c2ccccc2)o1` (stereo not shown) [Compound 11] in this work. A pIC50 of 5.15 was found for `Cc1c(C(=O)NCCC(O)CN2CCc3ccccc3C2)cnn1-c1ccncc1` (stereo not shown) [Compound 13] in this work. A pIC50 of 5.55 was found for `Cc1nnc(-c2ccc(C(=O)NCCC(O)CN3CCc4ccccc4C3)cc2)o1` (stereo not shown) [Compound 42] in this work.
